Patent US20250221966A1, “RXFP1 AGONISTS” (BRISTOL-MYERS SQUIBB COMPANY, priority 2021, published 2025)

Biological target: T1, human RXFP1 (Homo sapiens, UniProt Q9HBX9)
T1 construct: expressed in transfected cells
T1 sequence (Q9HBX9 1-757): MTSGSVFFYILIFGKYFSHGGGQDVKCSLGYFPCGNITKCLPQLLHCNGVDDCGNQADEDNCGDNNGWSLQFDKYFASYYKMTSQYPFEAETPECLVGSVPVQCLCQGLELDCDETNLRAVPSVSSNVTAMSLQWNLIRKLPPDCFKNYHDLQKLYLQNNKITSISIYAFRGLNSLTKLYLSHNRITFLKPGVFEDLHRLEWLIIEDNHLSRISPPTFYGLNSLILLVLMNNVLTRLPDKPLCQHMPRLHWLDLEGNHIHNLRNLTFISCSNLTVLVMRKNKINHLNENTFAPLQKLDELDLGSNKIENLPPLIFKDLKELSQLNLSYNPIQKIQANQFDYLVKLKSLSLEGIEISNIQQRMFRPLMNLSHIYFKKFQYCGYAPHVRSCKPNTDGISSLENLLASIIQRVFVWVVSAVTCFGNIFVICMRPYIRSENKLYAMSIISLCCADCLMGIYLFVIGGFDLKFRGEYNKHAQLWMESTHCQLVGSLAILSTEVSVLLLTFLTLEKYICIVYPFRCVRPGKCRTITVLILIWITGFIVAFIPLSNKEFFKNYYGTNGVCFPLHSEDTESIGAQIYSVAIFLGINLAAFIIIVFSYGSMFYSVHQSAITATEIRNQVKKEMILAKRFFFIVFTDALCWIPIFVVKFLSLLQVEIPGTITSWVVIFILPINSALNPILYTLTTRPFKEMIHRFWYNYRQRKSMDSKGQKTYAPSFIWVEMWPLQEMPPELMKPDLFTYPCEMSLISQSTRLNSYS
Experiment: RXFP1 cAMP assay (hRXFP1 HEK293 cAMP assay, HTRF)
Format: cell-based
Conditions: HEK293 cells stably expressing human RXFP1, 30 min at room temperature, read-out: cAMP hRXFP1 HEK293 Assay EC50
Method in brief: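 Intracellular cAMP was read by HTRF, with potency fitted to a 4-parameter logistic curve. Compound exposure (0.010 nM–50 μM final, 2% DMSO) lasted 30 min at room temperature. Cells were hRXFP1-HEK293 at 1500 per well in IBMX-containing (0.5 mM) HEPES-buffered HBSS.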

Compound	EC50
CCC(C)(C)NC(=O)[C@@H]1[C@H](NC(=O)c2cc(C3=NOC4COCC34)ccc2OC)[C@@H]2CC[C@H]1/C2=C/C1CC1 (stereo partly shown) [compound 502]	11.9 nM
O=C(NC1CCC1)O[C@@H](c1ccc(F)c(-c2ccc(OCCO)c(C(=O)N[C@@H]3C4CCC(/C4=C/C(F)(F)F)[C@@H]3C(=O)Nc3ccc(F)c(C(F)(F)F)c3)c2)c1)C(F)(F)F (stereo partly shown) [compound 319]	13 nM
COc1ccc(C2=NOC3C(O)CCC23)cc1C(=O)N[C@H]1[C@@H](C(=O)Nc2ccc(F)c(C(F)(F)F)c2)[C@H]2CC[C@@H]1/C2=C\C1CC1 (single isomer, unassigned) [compound 483]	7.3 nM
COc1cc(F)c(F)cc1C(=O)N[C@@H]1C2CCC(/C2=C/c2cccc(-c3ccccc3)c2)[C@@H]1C(=O)Nc1ccc(F)c(C(F)(F)F)c1 (stereo partly shown) [compound 15]	110 nM
COc1ccc(C2=NOC3CC(CO)CC23)cc1C(=O)N[C@H]1[C@@H](C(=O)Nc2ccc(F)c(C(F)(F)F)c2)[C@H]2CC[C@@H]1/C2=C\c1cncs1 (stereo partly shown) [compound 803]	3.5 nM
COc1ccc(C2CCN(C(=O)C(C)(C)O)C2)cc1C(=O)N[C@@H]1C2CCC(C2=CC2CC2)[C@@H]1C(=O)Nc1ccc(F)c(C(F)(F)F)c1 (stereo partly shown) [compound 555]	41.4 nM
COc1ccc(-c2cnn(CC(=O)O)c2)cc1C(=O)N[C@@H]1C2CCC(/C2=C/c2ccccc2)[C@@H]1C(=O)Nc1ccc(F)c(C(F)(F)F)c1 (stereo partly shown) [compound 340]	62 nM
COc1ccc(-c2cc(C(=O)NC(C)C)ccc2F)cc1C(=O)N[C@@H]1C2CCC(C2=C(C)C)[C@@H]1C(=O)Nc1ccc(F)c(C(F)(F)F)c1 (stereo partly shown) [compound 153]	140 nM
COc1ccc(C2=NOC3CN(CCO)CC23)cc1C(=O)N[C@H]1[C@@H](C(=O)Nc2ccc(F)c(C(F)(F)F)c2)[C@H]2CC[C@@H]1/C2=C\C1CC1 (single isomer, unassigned) [compound 691]	735 nM
COc1ccc(-c2cc(C(OC(=O)Nc3ccc(Cl)cc3)C(F)(F)F)ccc2F)cc1C(=O)N[C@@H]1C2CCC(/C2=C/C2CC2)[C@@H]1C(=O)Nc1ccc(F)c(C(F)(F)F)c1 (stereo partly shown) [compound 227]	3 nM
COc1ccc(C2=NOC3CCCC23)cc1C(=O)N[C@@H]1C2CCC(/C2=C/C2CC2)[C@@H]1C(=O)Nc1ccc(F)c(C(F)(F)F)c1 (stereo partly shown) [compound 440]	25 nM
COc1ccc(-c2cc(-c3nnn[nH]3)ccc2F)cc1C(=O)N[C@@H]1C2CCC(/C2=C/c2ccccc2)[C@@H]1C(=O)Nc1ccc(F)c(C(F)(F)F)c1 (stereo partly shown) [compound 152]	8 nM
COc1ccc(-c2cc(C(OC(=O)Nc3ccccc3)C(=O)O)ccc2F)cc1C(=O)N[C@@H]1C2CCC(/C2=C/C(F)(F)F)[C@@H]1C(=O)Nc1ccc(F)c(C(F)(F)F)c1 (stereo partly shown) [compound 205]	1 nM
COc1ccc(-c2cc(C(=O)O)ccc2F)cc1C(=O)N[C@@H]1C2CCC(/C2=C/C2CC2)[C@@H]1C(=O)NCc1ccccc1OC(F)(F)F (stereo partly shown) [compound 306]	540 nM
COc1ccc(C2CCCN2CC(C)(C)O)cc1C(=O)N[C@@H]1C2CCC(C2=CC2CC2)[C@@H]1C(=O)Nc1ccc(F)c(C(F)(F)F)c1 (stereo partly shown) [compound 698]	1010 nM
COc1ccc(C2=NOC3C[C@H](O)CC23)cc1C(=O)N[C@@H]1C2CCC(/C2=C/C2CC2)[C@@H]1C(=O)Nc1ccc(F)c(C(F)(F)F)c1 (stereo partly shown) [compound 407]	21 nM
O=C(N[C@H]1[C@@H](C(=O)Nc2ccc(F)c(C(F)(F)F)c2)[C@H]2CC[C@@H]1/C2=C\C1CC1)c1cccc(C2=NOC3COCC23)c1 (single isomer, unassigned) [compound 719]	2490 nM

Compound	EC50
COc1ccc(C2=NOC3COCC23)cc1C(=O)N[C@H]1[C@@H](C(=O)Nc2cc(OC(F)(F)F)ccc2F)[C@H]2CC[C@@H]1/C2=C\C1CC1 (stereo partly shown) [compound 762]	2 nM
COc1ccc(C2=NOC(C3(O)CCCC3)C2)cc1C(=O)N[C@H]1[C@@H](C(=O)Nc2ccc(F)c(C(F)(F)F)c2)[C@H]2CC[C@@H]1/C2=C\C1CC1 (single isomer, unassigned) [compound 619]	156 nM
COc1cc(F)c(F)cc1C(=O)N[C@@H]1C2CCC(/C2=C/c2ccc(Cl)cc2)[C@@H]1C(=O)Nc1ccc(F)c(C(F)(F)F)c1 (stereo partly shown) [compound 21]	55 nM
COc1ccc(C2=NOC(C)(C)N2C(C)C)cc1C(=O)N[C@H]1[C@@H](C(=O)Nc2ccc(F)c(C(F)(F)F)c2)[C@H]2CC[C@@H]1/C2=C\C1CC1 [Example 591]	86.6 nM
COc1ccc(C2=NOC(C(C)(O)C(F)(F)F)C2)cc1C(=O)N[C@H]1[C@@H](C(=O)Nc2ccc(F)c(C(F)(F)F)c2)[C@H]2CC[C@@H]1/C2=C\C1CC1 (single isomer, unassigned) [compound 682]	612 nM
COc1ccc(-c2cc(C(N)=O)on2)cc1C(=O)N[C@@H]1C2CCC(/C2=C/C2CC2)[C@@H]1C(=O)Nc1ccc(F)c(C(F)(F)F)c1 (stereo partly shown) [compound 426]	45 nM
COc1ccc(C2=NO[C@H]3CC(CO)C[C@@H]23)cc1C(=O)N[C@H]1[C@@H](C(=O)Nc2ccc(F)c(C(F)(F)F)c2)[C@H]2CC[C@@H]1/C2=C\CCC1CC1 (stereo partly shown) [compound 824]	2.9 nM
COc1ccc(C2=NOC3COCC23)cc1C(=O)N[C@H]1[C@@H](C(=O)N[C@H](C)C2CCC2)[C@H]2CC[C@@H]1/C2=C\C1CC1 (stereo partly shown) [compound 507]	12.9 nM
COc1ccc(-c2cc(C(NC(C)=O)C(=O)O)ccc2F)cc1C(=O)N[C@@H]1C2CCC(/C2=C/C2CC2)[C@@H]1C(=O)Nc1ccc(F)c(C(F)(F)F)c1 (stereo partly shown) [Example 182]	5 nM
COc1ccc(-c2cc(C3=NOC(C(=O)O)C3)ccc2F)cc1C(=O)N[C@H]1[C@@H](C(=O)Nc2ccc(F)c(C(F)(F)F)c2)[C@H]2CC[C@@H]1/C2=C\C1CC1 (stereo partly shown) [compound 947]	8.6 nM
COc1ccc(C2=NO[C@H]3C[C@H](CO)C[C@@H]23)cc1C(=O)N[C@H]1[C@@H](C(=O)N[C@H](C)C2(C)CC2)[C@H]2CC[C@@H]1/C2=C\C1CCCC1 [compound 817]	1.9 nM
COc1ccc(-c2cc(C(O)C(=O)O)ccc2F)cc1C(=O)NC1C2CCC(/C2=C/C2CCN(Cc3ccc(Cl)cc3)C2)C1C(=O)Nc1ccc(F)c(C(F)(F)F)c1 (stereo not shown) [compound 357]	211 nM
COc1cc(F)c(C2=NOC3COCC23)cc1C(=O)N[C@H]1[C@@H](C(=O)Nc2ccc(F)c(C(F)(F)F)c2)[C@H]2CC[C@@H]1/C2=C\C1CC1 (stereo partly drawn) [Example 419, (1R,2S,3R,4R,Z)-7-(cyclopropylmethylene)-3-(4-fluoro-2-methoxy-5-(3a,4,6,6a-tetrahydrofuro[3,4-d]isoxazol-3-yl)benzamido)-N-(4-fluoro-3-(trifluoromethyl)phenyl)bicyclo[2.2.1]heptane-2-carboxamide]	17 nM
COc1ccc(C2CCCN(C(=O)C(=O)O)C2)cc1C(=O)NC1C2CCC(/C2=C/C(F)(F)F)C1C(=O)Nc1ccc(F)c(C(F)(F)F)c1 (stereo not shown) [compound 368]	639 nM
COc1ccc(C2=NOC3COCC23)cc1C(=O)N[C@H]1[C@@H](C(=O)NC2(C(C)C)CC2)[C@H]2CC[C@@H]1/C2=C\C1CC1 (stereo partly shown) [compound 584]	77.3 nM
COc1ccc(-c2ncc(CO)s2)cc1C(=O)N[C@H]1[C@@H](C(=O)Nc2ccc(F)c(C(F)(F)F)c2)[C@H]2CC[C@@H]1/C2=C\C1CCCC1 [compound 750]	3.5 nM
COc1ccc(-c2cc(C(C)CC(=O)O)ccc2F)cc1C(=O)N[C@H]1[C@@H](C(=O)Nc2ccc(F)c(C(F)(F)F)c2)[C@H]2CC[C@@H]1/C2=C\C1CC1 (stereo partly shown) [compound 888]	2.7 nM
